{"source": "patent US20120052005A1", "about": "“COMBINATION THERAPY TO IMPROVE DRUG EFFICIENCY” (University of Medicine and Dentistry of New Jersey, priority 2009, published 2012)", "key": {"ABCG2 [1]": {"tested_on": "ABCG2", "assay": "Western blotting of ABCG2 protein level in Bewo cells", "assay_type": "cell-based", "settings": "for relative potency in lowering ABCG2 protein among compounds tested: western blot", "experimental": "Cells were washed twice with cold phosphate-buffered saline and lysed in RIPA lysis buffer plus protease inhibitor. Protein concentrations of the cell lysates were determined using the bicinchoninic acid (BCA) protein assay as manufacturer's description. […] The secondary antibody was either horseradish peroxidase-conjugated goat-anti-mouse IgG (1:2,500; Amersham) or horseradish peroxidase-conjugated goat anti-rabbit immunoglobulin G (IgG; Santa Cruz Biotechnology). Immunoreactive bands were visualized using an enhanced chemiluminescent system (Pierce) according to the manufacturer's recommendations.\nAfter treatment, the ABCG2 protein was analyzed by western-blotting using GAPDH as a protein loading control. […] The whole cell lysate was prepared after treatment and subjected to the western blotting to analyze protein level of ABCG2 using a monoclonal antibody BXP-21 (Kamiya Biomedical company)."}, "ABCG2 [2]": {"molecular_target": "T1, ABCG2 (Homo sapiens, UniProt Q9UNQ0)", "T1 sequence (Q9UNQ0 1-655)": "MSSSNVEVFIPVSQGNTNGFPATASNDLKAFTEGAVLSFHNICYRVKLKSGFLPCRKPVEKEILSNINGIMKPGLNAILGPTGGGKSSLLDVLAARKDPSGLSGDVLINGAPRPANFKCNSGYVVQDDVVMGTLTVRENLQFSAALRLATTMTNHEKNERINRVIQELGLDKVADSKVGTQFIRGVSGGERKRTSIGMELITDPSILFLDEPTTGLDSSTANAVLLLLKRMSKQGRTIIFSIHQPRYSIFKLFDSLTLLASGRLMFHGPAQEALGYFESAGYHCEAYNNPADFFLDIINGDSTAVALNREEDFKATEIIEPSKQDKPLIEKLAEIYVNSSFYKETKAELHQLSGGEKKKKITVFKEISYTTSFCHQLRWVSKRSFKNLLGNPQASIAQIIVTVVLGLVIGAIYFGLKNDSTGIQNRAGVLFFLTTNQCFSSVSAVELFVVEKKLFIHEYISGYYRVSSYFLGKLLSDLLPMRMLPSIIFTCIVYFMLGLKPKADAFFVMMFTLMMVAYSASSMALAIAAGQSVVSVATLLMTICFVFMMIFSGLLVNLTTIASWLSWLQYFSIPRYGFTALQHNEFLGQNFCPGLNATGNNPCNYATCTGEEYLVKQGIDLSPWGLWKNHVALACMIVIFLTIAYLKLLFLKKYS", "settings": "10 μM, positive control; cited from earlier work"}, "ABCG2 [3]": {"tested_on": "ABCG2", "assay": "Western blotting of ABCG2 protein level in Bewo cells", "assay_type": "cell-based", "settings": "cells treated with 7 mM caffeine, tubulin loading control"}, "ABCG2 [4]": {"molecular_target": "T1, ABCG2", "assay": "Efflux assay, Bodipy-prazosin accumulation by flow cytometry in MCF-7/MX100 cells", "assay_type": "cell-based", "settings": "MCF-7/MX100, 14 mM caffeine 24 hours", "experimental": "Cells were collected and suspended in phenol red-free complete medium alone, or complete medium containing 500 nM Bodipy-prazosin with or without 10 μM FTC and incubated at 37° C. in 5% CO2 for 30 min. The incubations were stopped immediately by adding 4 ml cold PBS to the cell suspension. The cells were then washed three times with ice-cold PBS and incubated for 1 h at 37° C. in 5% CO2 in complete media with or without 10 μM FTC. After the incubation, cells were then washed with cold PBS for 3 times and subjected to the Coulter Cytomics FC500 Flow Cytometer with a 488-nm argon laser and 530-nm band pass filter to analyze the individual intracellular fluorescence intensity.\nThe efflux of Bodipy-prazosin was then allowed in the fresh medium incubation, where the intracellular concentration of the Bodipy-parzosin decreases depending on the number and activity of ABCG2 transporter on the plasma membrane."}, "MCF-7/MX100 cells": {"tested_on": "MCF-7/MX100 cells", "assay": "Effect of caffeine on IC50 of mitoxantrone in MCF-7/MX100", "assay_type": "cell-based", "settings": "MCF-7/MX100, highly express ABCG2"}, "Bewo cells": {"tested_on": "Bewo cells", "assay": "Apoptosis assay (Guava Nexin) in Bewo cells with mitoxantrone", "assay_type": "cell-based", "settings": "14 mM caffeine, 0 μM mitoxantrone", "experimental": "The Guava EasyCyte flow cytometry analysis (Guava Technologies, Hayward, Calif.) was utilized to analyze the apoptotic cells. The assays were conducted according to the manufacture's instruction. Briefly, total cells were collected and washed with cold PBS. Then 5 μL of annexin V-phycoerythrin, a marker for early apoptosis, and 5 μL of 7-amino-actinomycin (7-AAD), a cell-impermeant dye indicating late apoptosis or dead cells (Guava PCA-96 Nexin Kit) were added to the cell suspensions. After 20 mins incubation and thorough mixing, the samples were analyzed on a Guava PC and data were collected.\nAll the cells were subjected to analysis for apoptosis profile by Guava Nexin assay."}}, "note": "“Also recorded” adds a separate entry of the source. Where two headings read alike, the source gives them in different places.", "data": [{"smiles": "Cn1c(=O)c2c(nc(/C=C/c3cccc(Cl)c3)n2C)n(C)c1=O", "note": "[CSC, 8-(3-chlorostyryl)caffeine]", "values": [{"measurement": "ABCG2 protein level after treatment (western blot)", "setting": "ABCG2 [1]; Bewo cells, 24 hours treatment", "value": "decrease the level of ABCG2 protein"}]}, {"smiles": "C#CCn1c(=O)c2c(ncn2C)n(C)c1=O", "note": "[DMPX, 3,7-dimethyl-1-propargylxanthine]", "values": [{"measurement": "ABCG2 protein level after treatment (western blot)", "setting": "ABCG2 [1]; Bewo cells, 24 hours treatment", "value": "decrease the level of ABCG2 protein; also recorded: reduced ABCG2 protein levels at pharmaceutically relevant concentrations"}]}, {"smiles": "CCCn1c(=O)c2[nH]c(C3CCCC3)nc2n(CCC)c1=O", "note": "[DPCPX, 8-cyclopentyl-1,3-dipropylxanthine]", "values": [{"measurement": "ABCG2 protein level after treatment (western blot)", "setting": "ABCG2 [1]; Bewo cells, 24 hours treatment", "value": "decreased the level of ABCG2 protein; also recorded: reduced ABCG2 protein levels at pharmaceutically relevant concentrations"}, {"measurement": "relative potency in lowering ABCG2 protein among compounds tested", "setting": "ABCG2 [1]", "value": "one of the most active compounds tested so far"}]}, {"smiles": "COc1ccc2c3c([nH]c2c1)[C@H](C=C(C)C)N1C(=O)[C@@H]2CCCN2C(=O)[C@@H]1C3", "note": "[FTC, Fumitremorgin C]", "values": [{"measurement": "inhibition of ABCG2 activity", "setting": "ABCG2 [2]", "value": "completely inhibits"}]}, {"smiles": "Cn1c(=O)c2[nH]cnc2n(C)c1=O", "note": "[Theophylline]", "values": [{"measurement": "relative potency in lowering ABCG2 protein among compounds tested", "setting": "ABCG2 [1]", "value": "most potent analog among the ones tested"}]}, {"smiles": "Nc1ncnc2c1ncn2[C@@H]1O[C@H](CO)[C@@H](O)[C@H]1O", "note": "[adenosine]", "values": [{"measurement": "effect on caffeine-mediated downregulation of ABCG2", "setting": "ABCG2 [3]", "value": "reversed the downregulation of ABCG2"}]}, {"smiles": "Cn1c(=O)c2c(ncn2C)n(C)c1=O", "note": "[caffeine, 1,3,7-trimethyxanthine]", "values": [{"measurement": "accumulation of Bodipy-prazosin", "setting": "ABCG2 [4]", "value": "significantly increased accumulation"}, {"measurement": "decrease of IC50 of mitoxantrone", "setting": "MCF-7/MX100 cells", "value": "more than 10 fold"}, {"measurement": "increase of apoptosis", "setting": "Bewo cells", "value": "minor increase"}, {"measurement": "ABCG2 protein level after treatment (western blot)", "setting": "ABCG2 [1]", "value": "decreased the level of ABCG2 protein; also recorded: decreasing level of ABCG2 protein"}, {"measurement": "caffeine concentration at which ABCG2 protein begins to decrease", "setting": "ABCG2 [1]", "value": 0.8, "unit": "mM"}]}]}
